Assay results published in ChEMBL document CHEMBL5550120, “SuFEx-based chemical diversification for the systematic discovery of CRBN molecular glues” (Bioorg Med Chem, 2024).
Active and inactive are the calls of the source. No cut-off for these calls is given here.

What was measured:
MOLT-4 [1] = experiment: Antiproliferative activity against wild type human MOLT-4 cells assessed as reduction in cell viability measured after 3 days by ATP-dependent luminescence assay; type: functional, cell-based; settings: MOLT-4, 72 h
MV4-11 [2] = experiment: Antiproliferative activity against wild type human MV4-11 cells assessed as reduction in cell viability measured after 3 days by ATP-dependent luminescence assay; type: functional, cell-based; settings: MV4-11, 72 h
BE(2)-C [3] = experiment: Antiproliferative activity against wild type human BE2C cells assessed as reduction in cell viability measured after 3 days by ATP-dependent luminescence assay; type: functional, cell-based; settings: 72 h
[4] = target: T1, Protein cereblon/Eukaryotic peptide chain release factor GTP-binding subunit ERF3A (Homo sapiens, UniProt Q96SW2+P15170); experiment: Molecular glue activity at CRBN/HiBiT-tagged GSPT1 in human MOLT-4 cells assessed as induction of GSPT1 degradation measured after 3 hrs by immunoblot analysis; type: cell-based
Target sequence in this assay (Q96SW2 whole entry): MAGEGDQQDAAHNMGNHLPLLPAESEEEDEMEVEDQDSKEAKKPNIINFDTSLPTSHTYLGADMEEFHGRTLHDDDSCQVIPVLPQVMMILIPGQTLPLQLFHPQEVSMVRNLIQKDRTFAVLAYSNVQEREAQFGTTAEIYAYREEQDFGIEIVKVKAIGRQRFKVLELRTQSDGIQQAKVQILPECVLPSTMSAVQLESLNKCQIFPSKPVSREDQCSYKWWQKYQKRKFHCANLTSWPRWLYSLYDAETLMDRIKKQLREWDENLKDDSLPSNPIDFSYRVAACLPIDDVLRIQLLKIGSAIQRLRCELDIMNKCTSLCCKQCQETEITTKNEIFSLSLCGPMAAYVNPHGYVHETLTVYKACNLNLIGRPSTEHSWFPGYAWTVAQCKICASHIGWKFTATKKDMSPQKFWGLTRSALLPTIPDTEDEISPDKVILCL
Target sequence in this assay (P15170 whole entry): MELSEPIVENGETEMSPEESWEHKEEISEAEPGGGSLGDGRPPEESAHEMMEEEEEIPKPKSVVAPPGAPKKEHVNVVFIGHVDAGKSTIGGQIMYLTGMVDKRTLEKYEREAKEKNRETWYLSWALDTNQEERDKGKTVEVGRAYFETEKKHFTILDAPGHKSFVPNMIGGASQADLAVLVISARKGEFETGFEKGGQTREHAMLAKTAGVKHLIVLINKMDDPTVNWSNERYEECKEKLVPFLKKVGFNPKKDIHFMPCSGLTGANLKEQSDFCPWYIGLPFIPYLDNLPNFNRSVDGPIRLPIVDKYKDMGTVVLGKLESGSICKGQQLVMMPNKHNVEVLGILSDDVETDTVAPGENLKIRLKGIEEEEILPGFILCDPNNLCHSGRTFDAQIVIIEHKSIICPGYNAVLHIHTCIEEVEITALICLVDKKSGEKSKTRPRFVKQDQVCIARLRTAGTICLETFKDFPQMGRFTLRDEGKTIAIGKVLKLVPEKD

[5] = target: T1, Protein cereblon/Eukaryotic peptide chain release factor GTP-binding subunit ERF3A; experiment: Molecular glue activity at CRBN/HiBiT-tagged GSPT1 in wild type human MV4-11 cells assessed as induction of GSPT1 degradation measured after 3 hrs by immunoblot analysis; type: cell-based
Target sequence in this assay (Q96SW2 whole entry): as the sequence (Q96SW2 whole entry) above
Target sequence in this assay (P15170 whole entry): as the sequence (P15170 whole entry) above

[6] = target: T1, Protein cereblon/Eukaryotic peptide chain release factor GTP-binding subunit ERF3A; experiment: Molecular glue activity at CRBN/HiBiT-tagged GSPT1 in wild type human BE2C cells assessed as induction of GSPT1 degradation measured after 3 hrs by immunoblot analysis; type: cell-based
Target sequence in this assay (Q96SW2 whole entry): as the sequence (Q96SW2 whole entry) above
Target sequence in this assay (P15170 whole entry): as the sequence (P15170 whole entry) above

[7] = Selectivity index, ratio of EC50 for antiproliferative activity against human BE2C cells to EC50 for antiproliferative activity against human MOLT-4 cells; type: functional
[8] = Selectivity index, ratio of EC50 for antiproliferative activity against human BE2C cells to EC50 for antiproliferative activity against human MV4-11 cells; type: functional
MOLT-4 [9] = experiment: Antiproliferative activity against CRBN depleted human MOLT-4 cells assessed as reduction in cell viability measured after 3 days by ATP-dependent luminescence assay; type: functional, cell-based; settings: time 3.0 day
MOLT-4 [10] = experiment: Antiproliferative activity against human MOLT-4 cells harboring GSPT1 G575N mutant assessed as reduction in cell viability measured after 3 days by ATP-dependent luminescence assay; type: functional, cell-based; settings: time 3.0 day
MV4-11 [11] = experiment: Antiproliferative activity against CRBN depleted human MV4-11 cells assessed as reduction in cell viability measured after 3 days by ATP-dependent luminescence assay; type: functional, cell-based; settings: time 3.0 day
MV4-11 [12] = experiment: Antiproliferative activity against human MV4-11 cells harboring GSPT1 G575N mutant assessed as reduction in cell viability measured after 3 days by ATP-dependent luminescence assay; type: functional, cell-based; settings: time 3.0 day
BE(2)-C [13] = experiment: Antiproliferative activity against CRBN depleted human BE2C cells assessed as reduction in cell viability measured after 3 days by ATP-dependent luminescence assay; type: functional, cell-based; settings: time 3.0 day
BE(2)-C [14] = experiment: Antiproliferative activity against human BE2C cells harboring GSPT1 G575N mutant assessed as reduction in cell viability measured after 3 days by ATP-dependent luminescence assay; type: functional, cell-based; settings: time 3.0 day
[15] = target: DNA-binding protein Ikaros (Homo sapiens) (UniProt Q13422); experiment: Induction of IKZF1 degradation in human MV4-11 cells at 3 uM measured after 3 hrs by proteomics analysis; type: cell-based
DNA-binding protein Ikaros (Homo sapiens), sequence (Q13422 whole entry): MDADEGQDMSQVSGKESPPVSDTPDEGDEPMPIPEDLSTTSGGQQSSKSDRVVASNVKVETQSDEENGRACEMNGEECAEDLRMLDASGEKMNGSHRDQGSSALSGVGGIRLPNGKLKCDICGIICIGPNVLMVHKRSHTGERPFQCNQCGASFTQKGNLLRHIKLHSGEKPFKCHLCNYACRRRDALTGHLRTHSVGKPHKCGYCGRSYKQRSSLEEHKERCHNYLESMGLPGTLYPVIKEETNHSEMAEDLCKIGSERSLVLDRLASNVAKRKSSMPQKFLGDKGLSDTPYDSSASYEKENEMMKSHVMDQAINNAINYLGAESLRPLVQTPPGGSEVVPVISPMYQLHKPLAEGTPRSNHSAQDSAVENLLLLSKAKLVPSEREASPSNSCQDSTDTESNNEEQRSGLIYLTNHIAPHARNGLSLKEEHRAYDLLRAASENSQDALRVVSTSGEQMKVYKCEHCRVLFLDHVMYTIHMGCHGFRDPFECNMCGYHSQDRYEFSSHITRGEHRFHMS

[16] = target: T1, Protein cereblon/Eukaryotic peptide chain release factor GTP-binding subunit ERF3A; experiment: Molecular glue activity at CRBN/GSPT1 in CRBN depleted human MOLT-4 cells assessed as induction of GSPT1 degradation at 3 uM measured after 3 hrs by immunoblot analysis; type: cell-based
Target sequence in this assay (P15170 whole entry, looked up): as the sequence (P15170 whole entry) above
Target sequence in this assay (Q96SW2 whole entry, looked up): as the sequence (Q96SW2 whole entry) above

[17] = target: T1, Protein cereblon/Eukaryotic peptide chain release factor GTP-binding subunit ERF3A; experiment: Molecular glue activity at CRBN/GSPT1 in human MOLT-4 cells harboring GSPT1 G575N mutant assessed as induction of GSPT1 degradation at 3 uM measured after 3 hrs by immunoblot analysis; type: cell-based
Target sequence in this assay (P15170 whole entry, looked up): as the sequence (P15170 whole entry) above
Target sequence in this assay (Q96SW2 whole entry, looked up): as the sequence (Q96SW2 whole entry) above

[18] = target: T1, Protein cereblon/Eukaryotic peptide chain release factor GTP-binding subunit ERF3A; experiment: Molecular glue activity at CRBN/GSPT1 in CRBN depleted human MV4-11 cells assessed as induction of GSPT1 degradation at 3 uM measured after 3 hrs by immunoblot analysis; type: cell-based
Target sequence in this assay (P15170 whole entry, looked up): as the sequence (P15170 whole entry) above
Target sequence in this assay (Q96SW2 whole entry, looked up): as the sequence (Q96SW2 whole entry) above

[19] = target: T1, Protein cereblon/Eukaryotic peptide chain release factor GTP-binding subunit ERF3A; experiment: Molecular glue activity at CRBN/GSPT1 in human MV4-11 cells harboring GSPT1 G575N mutant assessed as induction of GSPT1 degradation at 3 uM measured after 3 hrs by immunoblot analysis; type: cell-based
Target sequence in this assay (P15170 whole entry, looked up): as the sequence (P15170 whole entry) above
Target sequence in this assay (Q96SW2 whole entry, looked up): as the sequence (Q96SW2 whole entry) above

[20] = target: T1, Protein cereblon/Eukaryotic peptide chain release factor GTP-binding subunit ERF3A; experiment: Molecular glue activity at CRBN/GSPT1 in CRBN depleted human BE2C cells assessed as induction of GSPT1 degradation at 3 uM measured after 3 hrs by immunoblot analysis; type: cell-based
Target sequence in this assay (P15170 whole entry, looked up): as the sequence (P15170 whole entry) above
Target sequence in this assay (Q96SW2 whole entry, looked up): as the sequence (Q96SW2 whole entry) above

[21] = target: T1, Protein cereblon/Eukaryotic peptide chain release factor GTP-binding subunit ERF3A; experiment: Molecular glue activity at CRBN/GSPT1 in human BE2C cells harboring GSPT1 G575N mutant assessed as induction of GSPT1 degradation at 3 uM measured after 3 hrs by immunoblot analysis; type: cell-based
Target sequence in this assay (P15170 whole entry, looked up): as the sequence (P15170 whole entry) above
Target sequence in this assay (Q96SW2 whole entry, looked up): as the sequence (Q96SW2 whole entry) above

[22] = target: T1, Protein cereblon/Eukaryotic peptide chain release factor GTP-binding subunit ERF3A; experiment: Molecular glue activity at CRBN/HiBiT-tagged GSPT1 in human MOLT-4 cells assessed as induction of GSPT1 degradation at 3 uM pretreated with pomalidomide at 25 uM for 1 hr followed by compound treatment and measured after 3 hrs by immunoblot analysis; type: cell-based
[23] = target: T1, Protein cereblon/Eukaryotic peptide chain release factor GTP-binding subunit ERF3A; experiment: Molecular glue activity at CRBN/HiBiT-tagged GSPT1 in human MV4-11 cells assessed as induction of GSPT1 degradation at 3 uM pretreated with pomalidomide at 25 uM for 1 hr followed by compound treatment and measured after 3 hrs by immunoblot analysis; type: cell-based
[24] = target: T1, Protein cereblon/Eukaryotic peptide chain release factor GTP-binding subunit ERF3A; experiment: Molecular glue activity at CRBN/HiBiT-tagged GSPT1 in human BE2C cells assessed as induction of GSPT1 degradation at 3 uM pretreated with pomalidomide at 25 uM for 1 hr followed by compound treatment and measured after 3 hrs by immunoblot analysis; type: cell-based
[25] = target: T1, Protein cereblon/Eukaryotic peptide chain release factor GTP-binding subunit ERF3A; experiment: Molecular glue activity at CRBN/HiBiT-tagged GSPT1 in human MOLT-4 cells assessed as induction of GSPT1 degradation at 3 uM pretreated with MLN4924 at 1 uM for 1 hr followed by compound treatment and measured after 3 hrs by immunoblot analysis; type: cell-based
[26] = target: T1, Protein cereblon/Eukaryotic peptide chain release factor GTP-binding subunit ERF3A; experiment: Molecular glue activity at CRBN/HiBiT-tagged GSPT1 in human MV4-11 cells assessed as induction of GSPT1 degradation at 3 uM pretreated with MLN4924 at 1 uM for 1 hr followed by compound treatment and measured after 3 hrs by immunoblot analysis; type: cell-based
[27] = target: T1, Protein cereblon/Eukaryotic peptide chain release factor GTP-binding subunit ERF3A; experiment: Molecular glue activity at CRBN/HiBiT-tagged GSPT1 in human BE2C cells assessed as induction of GSPT1 degradation at 3 uM pretreated with MLN4924 at 1 uM for 1 hr followed by compound treatment and measured after 3 hrs by immunoblot analysis; type: cell-based
[28] = target: T1, Protein cereblon/Eukaryotic peptide chain release factor GTP-binding subunit ERF3A; experiment: Molecular glue activity at CRBN/HiBiT-tagged GSPT1 in human MOLT-4 cells assessed as induction of GSPT1 degradation at 3 uM pretreated with carfilzomib at 500 nM for 1 hr followed by compound treatment and measured after 3 hrs by immunoblot analysis; type: cell-based
[29] = target: T1, Protein cereblon/Eukaryotic peptide chain release factor GTP-binding subunit ERF3A; experiment: Molecular glue activity at CRBN/HiBiT-tagged GSPT1 in human MV4-11 cells assessed as induction of GSPT1 degradation at 3 uM pretreated with carfilzomib at 500 nM for 1 hr followed by compound treatment and measured after 3 hrs by immunoblot analysis; type: cell-based
[30] = target: T1, Protein cereblon/Eukaryotic peptide chain release factor GTP-binding subunit ERF3A; experiment: Molecular glue activity at CRBN/HiBiT-tagged GSPT1 in human BE2C cells assessed as induction of GSPT1 degradation at 3 uM pretreated with carfilzomib at 500 nM for 1 hr followed by compound treatment and measured after 3 hrs by immunoblot analysis; type: cell-based
MV4-11 [31] = experiment: Downregulation of GSPT1 protein abundance in human MV4-11 cells at 3 uM measured after 3 hrs by proteomics analysis; type: functional, cell-based
MV4-11 [32] = experiment: Downregulation of GSPT2 protein abundance in human MV4-11 cells at 3 uM measured after 3 hrs by proteomics analysis; type: functional, cell-based
[33] = target: DNA-binding protein Ikaros (Homo sapiens) (UniProt Q13422); experiment: Induction of cHiBiT-tagged IKZF1 degradation in human MV4-11 cells; type: cell-based
[34] = target: DNA-binding protein Ikaros (Homo sapiens) (UniProt Q13422); experiment: Induction of IKZF1 degradation in human MV4-11 cells at 3 uM measured after 3 hrs by immunoblot analysis; type: cell-based

SMILES: Cc1cccc(Cl)c1OCCNS(=O)(=O)Nc1ccc2c(c1)CN(C1CCC(=O)NC1=O)C2=O (centres undefined)
- EC50 (MOLT-4 [1]): 0.18 µM
- EC50 (MV4-11 [2]): 0.19 µM
- EC50 (BE(2)-C [3]): 12 µM
- DC50 [4]: 0.28 µM
- DC50 [5]: 0.28 µM
- DC50 [6]: 8 µM
- Ratio EC50 [7]: ~100
- Ratio EC50 [8]: ~100
- Activity (MOLT-4 [9]): inactive
- Activity (MOLT-4 [10]): inactive
- Activity (MV4-11 [11]): inactive
- Activity (MV4-11 [12]): inactive
- Activity (BE(2)-C [13]): inactive
- Activity (BE(2)-C [14]): inactive
- Activity [15]: inactive
- Activity [16]: inactive
- Activity [17]: inactive
- Activity [18]: inactive
- Activity [19]: inactive
- Activity [20]: inactive
- Activity [21]: inactive
- Activity [22]: inactive
- Activity [23]: inactive
- Activity [24]: inactive
- Activity [25]: inactive
- Activity [26]: inactive
- Activity [27]: inactive
- Activity [28]: inactive
- Activity [29]: inactive
- Activity [30]: inactive
- Activity (MV4-11 [31]): Active
- Activity (MV4-11 [32]): Active
- Activity [33]: Active
- Activity [34]: Active
